Experimental data taken from patent US20210100786A1, “Pharmaceutical Formulations” (CIPLA LIMITED, priority 2018, published 2021).

What was measured:
[1] = tested on: Caco-2 cells
[2] = tested on: Caco-2 cells; settings: cited from earlier work

Structure (SMILES): COc1nc2ccc(Br)cc2cc1[C@@H](c1ccccc1)[C@@](O)(CCN(C)C)c1cccc2ccccc12 [Bedaquiline]
- absorption [1]: increased
- efflux ratio (Papp B-A/Papp A-B) [1]: decreasing the efflux ratio
- P-gp substrate status [2]: known P-gp substrate
